Measurements from paper PMC4853715, “Design, Synthesis and Antitumor Activity of Novel link-bridge and B-Ring Modified Combretastatin A-4 (CA-4) Analogues as Potent Antitubulin Agents” (Scientific Reports, 2016).

Legend:
A549 = test: MTT assay, antiproliferative activity; assay type: cell-based; details: Homo sapiens, 48 h, ± SD
Description: (§1) The in vitro anticancer activities of the prepared compounds against HepG2, Hela, MCF-7, A549, HT-29 and SSC-4 cell lines were evaluated as described in the literature. Target tumor cells were grown to log phase in DMEM medium supplemented with 10% fetal bovine serum. After reaching a dilution of 1 × 10^5 cells Ml^−1 with the medium, 100 μL of the obtained cell suspension was added to each well of 96-well culture plates. Subsequently, incubation was performed at 37 °C in 5% CO2 atmosphere for 12 h before the cytotoxicity assessment. Tested samples at preset concentrations were added to 6 wells with CA-4 being employed as a positive reference. After 48 h exposure period, 25 μL of PBS containing 2.5 mg mL^−1 of MTT (Sigma, USA) was added to each well. After 4 h, the medium was replaced by 150 μL DMSO to dissolve the purple formazan crystals produced. The absorbance at 570 nm of each well was measured with Synergy™ 2 Multi-Mode Microplate Reader. Cell viability (%) was calculated using the following equation: cell viability (%) = (Atreatment/Acontrol) × 100%. The data represented the mean of three independent experiments in triplicate and were expressed as means ± SD.

HT-29 = test: MTT assay, antiproliferative activity; assay type: cell-based; details: Homo sapiens; HT-29, MTT, 48 h, ± SD
Description: as §1

Hela = test: MTT assay, antiproliferative activity; assay type: cell-based; details: Homo sapiens, 48 h, ± SD
Description: as §1

HepG2 = test: MTT assay, antiproliferative activity; assay type: cell-based; details: Homo sapiens, 48 h, ± SD
Description: as §1

MCF-7 = test: MTT assay, antiproliferative activity; assay type: cell-based; details: Homo sapiens, MCF7; MCF-7, MTT, 48 h, ± SD
Description: as §1

SSC-4 = test: MTT assay, antiproliferative activity; assay type: cell-based; details: Homo sapiens; SSC-4, MTT, 48 h, ± SD
Description: as §1

Bovine brain tubulin = test: Effects on tubulin polymerization (turbidimetric assembly); assay type: biochemical; details: 10 μM tubulin, 30 °C, 20 min incubation; read-out: Tubulin inhibition IC50
Description: Bovine brain tubulin was purified as described previously. To evaluate the effect of the compounds on tubulin assembly in vitro, compounds of varying concentrations were preincubated with 10 μM tubulin in glutamate buffer at 30 °C and then cooled to 0 °C. After addition of GTP, the mixtures were transferred to 0 °C cuvettes in a recording BioTek Synergy 4 multifunction microplate spectrophotometer and warmed up to 30 °C and the assembly of tubulin was observed turbidimetrically (TU660, USA).

A549 xenograft tumor = test: In vivo anti-tumor activity, A549 xenograft; parameters: species or system BALB/c nude mice; details: CA-4P group, 30 mg/kg or 15 mg/kg
Description: Mice were subcutaneously inoculated with injections of 5.0 × 10^6 cells/nude mice. After 12–14 days, tumor sizes were determined using micrometer calipers, and then nude mice with similar tumor volume (~100 mm^3, eliminate mice with tumors that are too large or too small) were randomly divided them into four groups (with six nude mice/group). […] Both drugs, as well as the vehicle control, were administered every other day for the entire period of observation.
Male BALB/c nude mice, five weeks old and weighing 18–22 g, were supplied by Shanghai Laboratory Animal Limited Company. The mice were raised in air-conditioned rooms under controlled lighting (12 h light-dark cycle at 24 °C) and were fed with standard laboratory food and water ad libitum. Before injection into the mice, the A549 cells were harvested by trypsinization and washed three times with cold serum-free medium and then injected in a total volume of 0.1 mL using a 1 mL latex-free syringe (BD) within 30 min of harvest. Mice were inoculated subcutaneously with A549 cells (5.0 × 10^6) on their shoulders. […] The control group received 0.9% normal saline. Tumor size was measured once every 2 days in two per-pendicular dimensions with Vernier calipers and converted to tumor volume (TV) using the formula: (ab^2)/2, where a and b refer to the longer and shorter dimensions, respectively. The body weight of the animals was measured twice a week to assess toxicity of the treatments at the same time as the tumor dimension measurement and the mortality was monitored daily. After the treatments for eight weeks, the animals were euthanized by cervical dislocation. This study conformed to the Guide for the Care and Use of Laboratory Animals as published by the US National Institutes of Health and was approved by the Institutional Ethics Review Board of Nanjing University.

[1] = test system: interphase microtubules of A549 cells; test: Confocal microscopy assay of microtubule morphology; assay type: cell-based, human; details: A549, 1.0 μM, 48 h
Description: After incubating for 48 h, A549 cells were washed with PBS for three times and fixed with 4% paraformaldehyde for 20 min, permeabilized with cold methanol for another 10 min. After that, the cells were blocked with 5% BSA for 1 h. Subsequently, the cells were washed with PBS, and incubated with anti-tubulin antibody in 3% BSA (1:200 Cytoskeleton, Inc.) overnight at 4 °C. After being washed with PBS for three times, each cover slip was added 200 μL of Cy3-labeled goat anti-mouse IgG (H + L) in 3% BSA (1:500, Cytoskeleton, Inc.) and incubated for 1 h at room temperature. At last, A549 cells was stained with 200 μL of DAPI for 5 min and observed under an confocal microscope (Olympus, USA).

[2] = molecular target: colchicine-binding site of tubulin; test: [3H] Colchicine-tubulin binding assay; details: 37 °C, 60 min; read-out: IC50, competition with [3H]colchicine binding to tubulin
Description: One micromolar radiolabeled colchicine [ring C, Methoxy-^3H] (Perkin-Elmer), 1% DMSO and various concentrations of test compounds in 50 μL G-PEM buffer containing 80 mmol/L PIPES (pH 6.8), 1 mmol/L EGTA, 1 mmol/L MgCl2 and 1 mmol/L GTP, and 5% glycerol were incubated with […] (>99% pure,; Cytoskeleton, Inc.; 0.2 mg/mL) at 37 °C for 60 min. The binding solutions were filtered through a stack of 2 DEAE-cellulose filters and washed twice. The radioactivity in the filtrates was determined by liquid scintillation spectrometry (Perkin-Elmer Wallac). Nonlinear regression was used to analyze the data using GraphPad Prism.

[3] = test system: Tubulin isolated from porcine brain tissue; test: Tubulin polymerization assay (kit, absorbance 340 nm); assay type: biochemical; details: 8.0 μM, 37 °C
Description: Tubulin polymerization was determined with the tubulin polymerization assay kit (Cytoskeleton, Denver, CO which was purchased from Cytoskeleton, Beyotime, China. Tubulin isolated from porcine brain tissue was used in this commercial kit.) It is based on the principal that light is scattered by microtubules to an extent that is proportional to the concentration of the microtubule polymer. Compounds that interact with tubulin will alter the polymerization of tubulin, and this can be detected using a spectrophotometer. Tubulin polymerization dynamics was monitored through measuring the change of absorbance at 340 nm every 2 min for 30 min at 37 °C on a spectrophotometer (Perkin-Elmer).

[4] = test system: polymerized tubulin in A549 cells; test: Flow cytometry of extracellular polymerized tubulin; assay type: cell-based, human; details: A549, 1 μM, 48 h
Description: Then, cells were harvested, washed once with PBS and blocked with 1% BSA for 30 min on ice, then were centrifuged (2800 rpm at 4 °C for 5 minutes) to remove supernatant. After that, cells were incubated with β-tubulin antibody (AT819, Beyotime, China) for 1 h on ice and were centrifuged (2800 rpm at 4 °C for 5 minutes) to remove supernatant. Next, cells were incubated with CY5.5-linked anti-rabbit IgG (A7016, Beyotime, China) on ice for 1 h and were also centrifuged (2800 rpm at 4 °C for 5 minutes) to remove supernatant. Finally, cells were then resuspended in PBS and the expression level of polymerized tubulin was analysed by flow cytometry (BD, USA).

Row | SMILES | IC50 (A549) | IC50 (HT-29) | IC50 (Hela) | IC50 (HepG2) | IC50 (MCF-7) | IC50 (SSC-4) | IC50 (Bovine brain tubulin) | tumor growth reduction versus vehicle at end of observation (A549 xenograft tumor; every other day) | average weight of the excised tumors (A549 xenograft tumor; control group 1.802 g) | microtubule morphology [1] | IC50 [2] | tubulin polymerization (in words) [3] | microtubule assembly (polymerized tubulin, curve shift versus control) [4]
1 | COc1cc(NC(=O)c2cn(C)c3ccccc23)cc(OC)c1OC [Compound 16] | 17.6 ± 1.9 µM | 46.4 ± 2.83 µM | 26.8 ± 6.81 µM | 17.5 ± 1.46 µM | 27.4 ± 2.41 µM | 45.5 ± 2.6 µM | 46.8 µM |  |  |  |  |  | 
2 | CCn1cc(/C=C\C(=O)c2cc(OC)c(OC)c(OC)c2)c2ccccc21 [Compound 11] | 27.9 ± 6.71 µM | 49.9 ± 6.98 µM | 34.2 ± 1.19 µM | 27.8 ± 2.23 µM | 45.5 ± 5.67 µM | 57.8 ± 4.67 µM | 125 µM |  |  |  |  |  | 
3 | CCn1cc(C(=O)Nc2cc(OC)c(OC)c(OC)c2)c2ccccc21 [Compound 17] | 26.5 ± 6.2 µM | 39.4 ± 3.45 µM | 35.7 ± 2.34 µM | 28.3 ± 3.33 µM | 48.3 ± 6.58 µM | 47.2 ± 4.33 µM | > 200 µM |  |  |  |  |  | 
4 | COc1ccc(/C=C\c2cc(OC)c(OC)c(OC)c2)cc1OP(=O)(O)O [CA-4P, fosbretabulin, reference compound] |  |  |  |  |  |  |  | 39% | 1.102 g |  |  |  | 
5 | CC(=O)O[C@H]1C(=O)[C@@]2(C)[C@H]([C@H](OC(=O)c3ccccc3)[C@]3(O)C[C@H](OC(=O)[C@H](O)[C@@H](NC(=O)c4ccccc4)c4ccccc4)C(C)=C1C3(C)C)[C@]1(OC(C)=O)CO[C@@H]1C[C@@H]2O [paclitaxel] |  |  |  |  |  |  |  |  |  | substantial stabilization of microtubules |  |  | 
6 | COc1cc(C(=O)/C=C\c2cn(C)c3ccccc23)cc(OC)c1OC [Compound 10] | 12.1 ± 1.2 µM | 44.5 ± 2.87 µM | 23.9 ± 5.89 µM | 19.6 ± 1.98 µM | 29.9 ± 3.21 µM | 43.2 ± 3.3 µM | 49.9 µM |  |  |  |  |  | 
7 | COc1cc(C(=O)/C=C\c2cn(Cc3ccccc3)c3ccccc23)cc(OC)c1OC [Compound 13] | 2.78 ± 0.92 µM | 34.7 ± 5.34 µM | 4.78 ± 1.43 µM | 2.98 ± 0.34 µM | 4.54 ± 0.96 µM | 25.7 ± 2.78 µM | 24.8 µM |  |  |  |  |  | 
8 | COc1cc(/C=N/NC(=O)c2cn(C)c3ccccc23)cc(OC)c1OC [Compound 4] | 0.29 ± 0.04 µM | 26.7 ± 1.89 µM | 8.45 ± 1.87 µM | 2.43 ± 0.23 µM | 3.21 ± 0.76 µM | 43.2 ± 3.98 µM | 14.8 µM |  |  |  |  |  | 
9 | CCCn1cc(C(=O)N/N=C/c2cc(OC)c(OC)c(OC)c2)c2ccccc21 [Compound 6] | 9.89 ± 1.16 µM | 70 ± 3.76 µM | 56.9 ± 4.89 µM | 39 ± 3.23 µM | 28.9 ± 3.23 µM | 79.9 ± 2.78 µM | 55.7 µM |  |  |  |  |  | 
10 | COc1ccc(/C=C\c2cc(OC)c(OC)c(OC)c2)cc1O [CA-4, combretastatin A-4] | 0.13 ± 0.02 µM | 15.6 ± 0.06 µM | 5.52 ± 0.82 µM | 0.46 ± 0.07 µM | 0.81 ± 0.11 µM | 27.2 ± 1.78 µM | […] |  |  | disorganized interphase microtubules | 4.96 µM | nearly completely blocked | […]
11 | COc1cc2c(c(OC)c1OC)-c1ccc(OC)c(=O)cc1[C@@H](NC(C)=O)CC2 [colchicine] |  |  |  |  |  |  |  |  |  | depolymerization and solubilization |  |  | 
12 | CCCn1cc(C(=O)Nc2cc(OC)c(OC)c(OC)c2)c2ccccc21 [Compound 18] | 40.2 ± 4.41 µM | 82.2 ± 3.7 µM | 77.4 ± 5.78 µM | 62.8 ± 3.65 µM | 59.8 ± 3.43 µM | 90.3 ± 6.76 µM | > 200 µM |  |  |  |  |  | 
13 | CCn1cc(C(=O)N/N=C/c2cc(OC)c(OC)c(OC)c2)c2ccccc21 [Compound 5] | 1.18 ± 0.11 µM | 56.8 ± 2.1 µM | 23.8 ± 2.23 µM | 10.6 ± 1.98 µM | 14.2 ± 1.11 µM | 55.2 ± 3.48 µM | 23.4 µM |  |  |  |  |  | 
14 | COc1cc(NC(=O)c2cn(Cc3ccccc3)c3ccccc23)cc(OC)c1OC [Compound 19] | 2.69 ± 0.4 µM | 32.7 ± 3.31 µM | 5.74 ± 1.06 µM | 3.68 ± 0.36 µM | 3.61 ± 0.46 µM | 29.5 ± 3.42 µM | 19.9 µM |  |  |  |  |  | 
15 | CCCn1cc(/C=C\C(=O)c2cc(OC)c(OC)c(OC)c2)c2ccccc21 [Compound 12] | 37.9 ± 3.61 µM | 78.9 ± 3.51 µM | 67.9 ± 4.47 µM | 53.9 ± 2.81 µM | 69.8 ± 5.43 µM | 90 ± 9.98 µM | > 200 µM |  |  |  |  |  | 
